Assay results published in paper PMC6121902, “Conjugation with Dihydrolipoic Acid Imparts Caffeic Acid Ester Potent Inhibitory Effect on Dopa Oxidase Activity of Human Tyrosinase” (International Journal of Molecular Sciences, 2018).
Where “and” joins values, the source holds several entries; their conditions need not be identical. Equal entries are not always repeated. Where two headings read alike, the source gives them in different places.

Columns and labels:
HBL cells [1] = assay: MTT viability assay; format: cell-based, human; conditions: 24 h; for cytotoxicity (MTT): 25 or 50 μM
Procedure: (§1) The effect of the inhibitors on cell viability was evaluated by phase contrast microscopy and by means of the 3-(4,5-dimethyl-2-thiazolyl)-2,5-diphenyl-2H-tetrazolium bromide (MTT) assay. HBL cells were treated with the compounds (25 or 50 μM) for 24 h. At the end of the incubation period, phase contrast images were taken and the MTT assay was performed to test the cytotoxicity of each compound.
(§2) Figure 4 Effect of caffeic acid derivatives on the viability of HBL cells. Cells were incubated for 24 h with the inhibitors at 25 or 50 µM. (a) Phase contrast microscopy images. Representative images are shown (n = 8) Bar size: 50 μm. (b) MTT viability assay. Cells were grown in 96-well plates to ~80% confluence in the presence or absence of the indicated compounds. After 24 h, MTT was added (1 mg/mL final concentration) and maintained in the culture media for 4 h. Cells were PBS-washed twice and solubilized in DMSO. Absorbance at 562 nm was measured and represented as a percentage of the control value. The mean ± SEM of 8 independent experiments is shown. **** p < 0.0001.
Cell viability was measured by the MTT assay. HBL cells were seeded into the wells of a 96-wells plate at a density of 10,000 cells in 200 μL cell culture media. The seeded cells were incubated for 18 h at 37 °C, then treated with the compounds (25 or 50 μM) for 24 h or left untreated. At the end of the incubation period, images were taken and the MTT assay was performed to test the cytotoxicity of the different caffeic acid derivatives.

mushroom tyrosinase [2] = tested on: mushroom tyrosinase; design: method as in PMID 31105178; conditions: cited from earlier work
mushroom tyrosinase [3] = assay: Mushroom tyrosinase DO activity inhibition (dopachrome formation at 475 nm, L-DOPA substrate); format: biochemical; conditions: 10 min pre-incubation, L-DOPA 1 mM, tyrosinase 20 U/mL, pH 6.8
Procedure: (§3) The inhibition properties of LCAME were preliminarily investigated on mushroom tyrosinase by spectrophotometric monitoring of dopachrome formation, a method which is routinely used for evaluation of the activity of potential tyrosinase inhibitors. L-DOPA was used as the substrate to test DO activity while L-tyrosine was used to test TH activity. LCAME was incubated in 50 mM phosphate buffer in the presence of mushroom tyrosinase (20 U/mL) at room temperature. After 10 min, L-DOPA or L-tyrosine (1 mM final concentration) were added and the absorbance at 475 nm was measured at different times over 10 min. For comparative purposes the effects of CAME were evaluated as well. Stock methanolic solutions of LCAME or CAME, ranging in concentration from 0.02 to 20 mM concentration were prepared dissolving a proper amount of the compound of interest in methanol. 100 μL of these solutions were added to 2 mL of 50 mM phosphate buffer at pH 6.8 (final concentrations range: 0.001–1 mM), in the presence or in the absence of 20 U/mL mushroom tyrosinase. After 10 min incubation at room temperature, 20 μL of a 100 mM solution of L-DOPA or L-tyrosine in 0.6 M HCl, were added (final concentration: 1 mM). Spectrophotometric analysis was performed by measuring the absorbance at 475 nm for 10 min at 2 min intervals. In control experiments, the reaction was run in the absence of LCAME. When required, the experiment was performed as above but adding L-DOP A soon after the addition of LCAME (0.050 μM). In separate experiments, the assay was run as above with LCAME or CAME at 100 μM, in the presence or absence of L-DOPA, and after 10 min the mixture was analyzed by HPLC.

mushroom tyrosinase [4] = assay: Mushroom tyrosinase TH activity inhibition (dopachrome formation at 475 nm, L-tyrosine substrate); format: biochemical; conditions: 10 min pre-incubation, L-tyrosine 1 mM, tyrosinase 20 U/mL, pH 6.8
Procedure: as §3, with “After 10 min incubation at room temperature, 20 μL of a 100 mM solution of L-DOPA or L-tyrosine in 0.6 M HCl, were added (final concentration: 1 mM).” left out, “In control experiments, the reaction was run in the absence of LCAME. When required, the experiment was performed as above but adding L-DOP A soon after the addition of LCAME (0.050 μM).” left out

mushroom tyrosinase [5] = assay: Consumption of inhibitor by mushroom tyrosinase (substrate test, HPLC); format: biochemical; conditions: 100 μM, 10 min
Procedure: Some tyrosinase inhibitors are also substrates of the enzyme and this is a critical issue because their oxidation can lead to the formation of highly reactive, cytotoxic o-quinones. To rule out this possibility, either LCAME or CAME at 100 μM were exposed to mushroom tyrosinase, in the absence of L-DOPA, and after 10 min, the reaction mixtures were analyzed by HPLC. […] HPLC analyses for determination of the consumption of CAME and LCAME in the presence of mushroom tyrosinase were performed on a Agilent 1100 binary pump instrument equipped with a UV-visible detector using an octadecylsilane-coated column, 250 mm × 4.6 mm, 5 μm particle size (Phenomenex Sphereclone ODS, Bologna, Italy) at 0.7 mL/min, using the following gradient: 0.1% formic acid (eluant a)/ methanol (eluant b): 40% b, 0–10 min; from 40 to 80% b, 47.5–52.5 min; from 80 to 40% b, 52.5–57.5 min. Detection wavelength was set at 280 nm. Stock methanolic solutions of LCAME or CAME, ranging in concentration from 0.02 to 20 mM concentration were prepared dissolving a proper amount of the compound of interest in methanol. 100 μL of these solutions were added to 2 mL of 50 mM phosphate buffer at pH 6.8 (final concentrations range: 0.001–1 mM), in the presence or in the absence of 20 U/mL mushroom tyrosinase. After 10 min incubation at room temperature, 20 μL of a 100 mM solution of L-DOPA or L-tyrosine in 0.6 M HCl, were added (final concentration: 1 mM). Spectrophotometric analysis was performed by measuring the absorbance at 475 nm for 10 min at 2 min intervals. In control experiments, the reaction was run in the absence of LCAME. When required, the experiment was performed as above but adding L-DOP A soon after the addition of LCAME ([…]). In separate experiments, the assay was run as above with LCAME or CAME at 100 μM, in the presence or absence of L-DOPA, and after 10 min the mixture was analyzed by HPLC.

HBL cells [6] = assay: Phase contrast microscopy of cell morphology; format: cell-based, human; conditions: 50 μM, 24 h
Procedure: as §1, §2
Cell viability was measured by the MTT assay. HBL cells were seeded into the wells of a 96-wells plate at a density of 10,000 cells in 200 μL cell culture media. The seeded cells were incubated for 18 h at 37 °C, then treated with the compounds (25 or 50 μM) for 24 h or left untreated. […]

tyrosinase = assay: Tyrosinase expression by Western blot (αPEP7), with or without NDP-MSH; format: cell-based, human
Procedure: Control HBL cells or cells grown in the presence of CAME (25 µM) or LCAME (25 or 50 µM) were stimulated for 48 h with a potent analogue of αMSH ([Nle^4,D-Phe^7]-α-MSH (NDP-MSH), 10^−7 M). Use of the 50 μM concentration of CAME was avoided since this concentration was somewhat cytotoxic as shown above. Expression of tyrosinase was then evaluated by Western blot using a specific antibody directed against tyrosinase (αPEP7). […] However, other mechanisms such as interference with activation and/or functional coupling of the melanocortin 1 receptor responsible for αMSH actions cannot be ruled out and a complete study of these possibilities is beyond the scope of this work. Accordingly, interference of LCAME with MITF expression or activity remains speculative at this stage. In any case, this preliminary observation deserves confirmation using cultured normal human melanocytes and further mechanistic analysis, as it may further support the potential use of LCAME as a skin depigmenting agent. Indeed, LCAME may act at two different levels, on one hand by inhibiting preexisting tyrosinase by a competitive mechanism, and on the other hand by interfering with αMSH-dependent induction of tyrosinase expression.
Figure 5 Effect on tyrosinase expression of CAME (25 µM) and LCAME (25 and 50 µM). HBL melanoma cells were incubated with or without the indicated compounds and stimulated with NDP-MSH (10^−7 M). After 48 h of treatment, tyrosinase levels were compared by Western blotting, performed as described in Materials and Methods. […] For each experimental condition, the fold-increase of tyrosinase abundance upon NDP-MSH treatment relative to the corresponding control was determined by densitometric analysis (ImageJ software) and is shown below the figure.
After protein separation by SDS-PAGE, they were transferred from the gel to the membrane and immunochemical detection with anti-PEP7 was performed as previously described. Briefly, the filters were blocked for 1 h in 2% bovine serum albumin in 1% Tween 20 PBS and incubated overnight at 4 °C with primary antibodies (1:4000 dilution). The filters were washed and further incubated with peroxidase-labeled mouse anti-rabbit IgG (1:5000 dilution). Staining and detection were done with ECL Plus Western Blotting Detection System chemiluminescent substrate (Thermo Fisher Scientific, Waltham, MA, USA). Images were acquired in a Fusion Solo.6S system (Vilber-Lourmat, Marne La Vallée, France). Signal intensities were estimated with ImageJ (National Institutes of Health, Bethesda, […], USA) in independent blots, and normalized with the corresponding loading controls (obtained by staining the membranes with an anti-ERK2 antibody).

[7] = biological target: T1, tyrosinase from HBL human melanoma cells (Homo sapiens, UniProt P14679); assay: DO activity of human tyrosinase in HBL cell extracts (MBTH assay, 490 nm); format: biochemical; conditions: HBL cell extracts
T1 construct: endogenous in cells; host or cells: HBL human melanoma cells (detergent-solubilized cell extract)
T1 sequence (P14679 19-529): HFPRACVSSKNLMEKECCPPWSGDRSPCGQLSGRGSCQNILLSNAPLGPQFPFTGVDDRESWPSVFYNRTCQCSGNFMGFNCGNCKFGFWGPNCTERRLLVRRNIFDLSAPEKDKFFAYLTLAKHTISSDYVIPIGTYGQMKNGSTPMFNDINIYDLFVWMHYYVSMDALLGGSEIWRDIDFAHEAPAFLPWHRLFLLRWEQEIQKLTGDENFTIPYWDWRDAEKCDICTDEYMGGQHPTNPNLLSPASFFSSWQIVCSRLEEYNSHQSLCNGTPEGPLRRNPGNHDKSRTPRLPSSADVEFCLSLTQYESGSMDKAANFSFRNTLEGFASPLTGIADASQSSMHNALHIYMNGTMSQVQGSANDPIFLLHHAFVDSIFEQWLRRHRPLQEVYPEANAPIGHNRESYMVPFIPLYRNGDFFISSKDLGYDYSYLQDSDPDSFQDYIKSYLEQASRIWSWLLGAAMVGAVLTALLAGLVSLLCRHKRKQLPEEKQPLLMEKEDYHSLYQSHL
Procedure: In further experiments, the effect of LCAME and LCA was investigated on extracts from HBL human melanoma cells expressing tyrosinase, and the inhibition of DO activity was evaluated. DO activity was determined according to Winder and Harris with some minor modifications: cell extracts were incubated with 3-methyl-2-benzothiazolinone hydrazone (MBTH) and absorbance at 490 nm was measured every 10 min for 1 h.
Cells were solubilized in 1% Igepal, 1% phenylmethylsulfonyl fluoride, 50 mM phosphate buffer (pH 6.8) and centrifuged at 2000 rpm for 5 min.
DO activity determinations were performed according to Winder and Harris with minor modifications. Briefly, cell extracts (usually 50–100 µg protein/assay) were incubated with 5 mM MBTH and 2.5 mM L-DOPA in 50 mM phosphate buffer pH 6.8 in the presence of the indicated concentrations of the compound of choice in a 96-wells plate. DO activity was measured spectrophotometrically in a microplate reader every ten minutes for one hour and was expressed as the slopes calculated with the GraphPad Prism 7 software (Linear Regression, San Diego, CA, USA).
For the analysis of kinetic parameters, the assays were run as above, using different concentrations of L-DOPA (from 0.1 to 2.0 mM) and of the inhibitor (0, 10 and 25 μM) to build the Lineweaver–Burk plot.

human tyrosinase = tested on: T2, human tyrosinase; assay: TH activity of human tyrosinase; format: biochemical; conditions: compared with DO activity
T2 construct: endogenous in cells

mushroom tyrosinase [8] = biological target: mushroom tyrosinase; design: method as in PMID 31105178; conditions: mushroom enzyme; read-out: IC50 (TH Activity); cited from earlier work
mushroom tyrosinase [9] = tested on: mushroom tyrosinase; design: method as in PMID 31105178; conditions: cited from earlier work; remark: listed apart in the source

IC50 (mushroom tyrosinase [3]) [µM]	IC50 (mushroom tyrosinase [4]) [µM]	consumption of the inhibitor (mushroom tyrosinase [5]; absence of L-DOPA)	consumption of the inhibitor (mushroom tyrosinase [5]; presence of L-DOPA)	cell morphology (phase contrast) (HBL cells [6])	IC50 ([7]; DO activity, L-DOPA 2.5 mM, read-out: IC50 (Mean ± SEM))	inhibitory effect on DO activity ([7]; fixed concentration of 25 μM)	effect on TH activity of human tyrosinase (human tyrosinase)	SMILES	cytotoxicity (MTT) (HBL cells [1])	effect on tyrosinase activity (mushroom tyrosinase [2]; same conditions as LCA)	cell viability (MTT) (HBL cells [1]; 50 μM)	NDP-MSH-mediated induction of tyrosinase expression (tyrosinase; 25 µM, NDP-MSH 10^−7 M, 48 h)	basal tyrosinase expression (tyrosinase; HBL cells, CAME 25 µM or LCAME 25 or 50 µM, Western blot)	nature of tyrosinase inhibition (Lineweaver–Burk plots) (mushroom tyrosinase [2])	IC50 (mushroom tyrosinase [2]; mushroom enzyme, read-out: IC50 (DO Activity)) [µM]	IC50 (mushroom tyrosinase [8]) [µM]	substrate of tyrosinase (mushroom tyrosinase [9])
–	–	–	–	–	–	–	–	O=C(O)/C=C/c1ccc(O)c(O)c1 [CA, caffeic acid]	not cytotoxic	did not show any effect	–	–	–	–	–	–	–
155 ± 7	79 ± 7	almost complete	extremely low	became rounded	–	–	–	COC(=O)/C=C/c1ccc(O)c(O)c1 [CAME, caffeic acid methyl ester, reference compound]	–	–	reduced cell viability	similarly induced	No significant changes	–	–	–	–
–	–	–	–	–	76 µM and 76.2 µM	significant inhibitory effect	much smaller	O=C(O)/C=C/c1ccc(O)c(O)c1SCCC(S)CCCCC(=O)O (stereo not drawn) [LCA, 2-S-lipoylcaffeic acid]	not cytotoxic	–	–	–	–	mixed type mechanism	3.22 ± 0.02	2 ± 0.1	not to be a substrate of tyrosinase
